We go through 12 compounds from ChEMBL document CHEMBL2062499, “Synthesis of benzofuran based 1,3,5-substituted pyrazole derivatives: as a new class of potent antioxidants and antimicrobials--a novel accost to amend biocompatibility” (Bioorg Med Chem Lett, 2012).

Each structure is given as a SMILES string.

A short description of test [1]: Antifungal activity against Chrysosporium keratinophilum MTCC 3017 at 0.5 mg/ml after 72 hrs by well plate method. The class given is functional.
Test [2] in a line: Antifungal activity against Chrysosporium keratinophilum MTCC 3017 at 1 mg/ml after 72 hrs by well plate method. The class given is functional.
The test system of test [3] is Aspergillus flavus. The test can be described thus: Antifungal activity against Aspergillus flavus MTCC 3306 at 1 mg/ml after 72 hrs by well plate method. The format is functional. The note with it: MTCC 3306, 72 h, read-out: DIZ.
Test [4] relates to Pseudomonas aeruginosa. The test can be described thus: Antibacterial activity Pseudomonas aeruginosa ATCC 27853 at 1 mg/ml after 24 hrs by well plate method. The format is functional. The note with it: ATCC 27853, 24 h, read-out: DIZ.
In test [5] the test system is Staphylococcus aureus. Put plainly: Antibacterial activity Staphylococcus aureus ATCC 25923 at 0.5 mg/ml after 24 hrs by well plate method. The format is functional. The note with it: ATCC 25923, 24 h, read-out: DIZ.
The test system of test [6] is Candida albicans. The test can be described thus: Antifungal activity against Candida albicans MTCC 2827 at 1 mg/ml after 72 hrs by well plate method. The class given is functional. The note with it: MTCC 2827, 72 h, read-out: DIZ.
For test [7], the system named is Candida albicans. Put plainly: Antifungal activity against Candida albicans MTCC 2827 at 0.5 mg/ml after 72 hrs by well plate method. The format is functional. The note with it: MTCC 2827, 72 h, read-out: DIZ.
Test [8] deals with Aspergillus flavus. Put plainly: Antifungal activity against Aspergillus flavus MTCC 3306 at 0.5 mg/ml after 72 hrs by well plate method. The format is functional. The note with it: MTCC 3306, 72 h, read-out: DIZ.
Test [9] concerns Liver microsomes. The test can be described thus: Antioxidant activity in Wistar rat liver microsomes assessed as inhibition of microsomal lipid peroxidation after 15 mins by MDA-TBA assay. The format is functional, Microsome. On the technique in general: Liver microsomes are a subcellular fraction often used to study metabolism.
The test system of test [10] is Pseudomonas aeruginosa. Put plainly: Antibacterial activity Pseudomonas aeruginosa ATCC 27853 at 0.5 mg/ml after 24 hrs by well plate method. The note with it: ATCC 27853, 24 h, read-out: DIZ. The format is functional.
For test [11], the system named is Staphylococcus aureus. Put plainly: Antibacterial activity Staphylococcus aureus ATCC 25923 at 1 mg/ml after 24 hrs by well plate method. The format is functional. The note with it: ATCC 25923, 24 h, read-out: DIZ.
The subject of test [12] is Escherichia coli. The test can be described thus: Antibacterial activity Escherichia coli ATCC 25922 at 0.5 mg/ml after 24 hrs by well plate method. The format is functional. The note with it: ATCC 25922, 24 h, read-out: DIZ.
The subject of test [13] is Radical scavenging activity. Put plainly: Antioxidant activity assessed as DPPH radical scavenging activity after 20 mins by UV-Vis spectrophotometric analysis. The class given is functional. Background: DPPH is a stable violet radical that fades when it is reduced.
The subject of test [14] is Escherichia coli. The test can be described thus: Antibacterial activity Escherichia coli ATCC 25922 at 1 mg/ml after 24 hrs by well plate method. The class given is functional. The note with it: ATCC 25922, 24 h, read-out: DIZ.

In the case of `COc1cc(C2CC(c3cc4ccccc4o3)=NN2C(=O)Nc2ccccc2)ccc1O` (configuration not stated), the inhibition zone (IZ) stood at 2 mm in [1] and 3 mm in test [2]. The zone of inhibition at 1000 µg/mL in [3] was 2 mm; in [4], 2 mm; in test [6] it was 2 mm; in test [11], 3 mm; in [14], 2 mm. The zone of inhibition at 500 µg/mL was 2 mm in test [5]; 1 mm in [7]; 1 mm in test [8]; 1 mm in [10]; 1 mm in test [12]. Also, the IC50 in test [9] stood at 116 uM/ml; in test [13], 121 uM/ml.
On to `COc1cc(C2CC(c3cc4ccccc4o3)=NN2C(=O)Nc2ccc(F)cc2)ccc1O` (configuration not stated), for which the inhibition zone (IZ) in test [1] turned out to be 11 mm; in test [2] it was 15 mm. For the same compound, the zone of inhibition at 1000 µg/mL in test [3] worked out at 11 mm; in [4], 19 mm; in test [6], 24 mm; in [11], 16 mm; in test [14] it was 18 mm. Also, the zone of inhibition at 500 µg/mL amounted to 14 mm in test [5]; 21 mm in test [7]; 9 mm in test [8]; 16 mm in test [10]; 12 mm in test [12]. The IC50 in test [9] is on record as 125 uM/ml; in [13], 110 uM/ml.
Consider `COc1cc(C2CC(c3cc4ccccc4o3)=NN2C(=O)Cl)ccc1O` (configuration not stated), for which the inhibition zone (IZ) in [1] is 2 mm; in test [2], 3 mm. The zone of inhibition at 1000 µg/mL in [3] came out at 2 mm; in test [4] it was 2 mm; in test [6], 4 mm; in test [11], 2 mm; in [14] it was 3 mm. Further, the zone of inhibition at 500 µg/mL came to 1 mm in [5]; 3 mm in test [7]; 1 mm in test [8]; 2 mm in test [10]; 2 mm in [12]. Further, the IC50 came to 147 uM/ml in test [9] and 135 uM/ml in test [13].
`CN[C@@H]1[C@H](O[C@H]2[C@H](O[C@H]3[C@H](O)[C@@H](O)[C@H](N=C(N)N)[C@@H](O)[C@@H]3N=C(N)N)O[C@@H](C)[C@]2(O)C=O)O[C@@H](CO)[C@H](O)[C@H]1O` [STREPTOMYCIN]: the zone of inhibition at 1000 µg/mL in test [4] is 16 mm; in [11], 15 mm; in test [14], 16 mm. In addition, the zone of inhibition at 500 µg/mL in [5] turned out to be 10 mm; in test [10], 13 mm; in [12], 10 mm.
Turning to `COc1cc(C2CC(c3cc4ccccc4o3)=NN2C(=O)Nc2ccc(C)cc2)ccc1O` (configuration not stated), the results for the inhibition zone (IZ) in [1] and in test [2] were 1 mm and 3 mm, respectively. Also, the zone of inhibition at 1000 µg/mL in test [3] was 3 mm; in [4] it was 4 mm; in test [6] it was 3 mm; in test [11], 4 mm; in [14], 5 mm. Besides, the zone of inhibition at 500 µg/mL came to 3 mm in [5]; 1 mm in test [7]; 2 mm in test [8]; 3 mm in test [10]; 4 mm in [12]. Further, the IC50 in [9] amounted to 44 uM/ml; in test [13], 37 uM/ml.
Consider `COc1cc(NC(=O)N2N=C(c3cc4ccccc4o3)CC2c2ccc(O)c(OC)c2)ccc1O` (configuration not stated), for which the inhibition zone (IZ) in test [1] is 2 mm; in test [2], 3 mm. The zone of inhibition at 1000 µg/mL in test [3] was determined as 2 mm; in [4] it was 2 mm; in [6], 2 mm; in [11] it was 3 mm; in test [14], 2 mm. The zone of inhibition at 500 µg/mL in test [5] is 2 mm; in test [7], 1 mm; in test [8] it was 1 mm; in test [10] it was 1 mm; in test [12], 1 mm. Also, the IC50 in test [9] is given as 12 uM/ml; in test [13], 10 uM/ml.
With `COc1cc(C2CC(c3cc4ccccc4o3)=NN2C(=O)Nc2ccc(O)cc2)ccc1O` (configuration not stated), the inhibition zone (IZ) worked out at 1 mm in [1] and 2 mm in test [2]. For the same compound, the zone of inhibition at 1000 µg/mL in test [3] was found to be 3 mm; in test [4], 3 mm; in test [6] it was 4 mm; in test [11], 2 mm; in test [14], 3 mm. Besides, the zone of inhibition at 500 µg/mL in [5] was 1 mm; in test [7], 2 mm; in test [8] it was 2 mm; in [10] it was 2 mm; in test [12], 2 mm. The values for the IC50 in [9] and in [13] were 15 uM/ml and 17 uM/ml, respectively.
As for `COc1cc(C2CC(c3cc4ccccc4o3)=NN2C(=O)Nc2ccc([N+](=O)[O-])cc2)ccc1O` (configuration not stated), the figures for the inhibition zone (IZ) in test [1] and in test [2] were 3 mm and 4 mm, respectively. Further, the zone of inhibition at 1000 µg/mL in test [3] worked out at 5 mm; in test [4], 9 mm; in [6], 5 mm; in [11] it was 8 mm; in test [14] it was 15 mm. Moreover, the zone of inhibition at 500 µg/mL in [5] came to 6 mm; in test [7] it was 4 mm; in test [8], 3 mm; in [10], 7 mm; in [12], 9 mm. For the same compound, the IC50 in test [9] was 113 uM/ml; in test [13], 103 uM/ml.
In the case of `COc1cc(C2CC(c3cc4ccccc4o3)=NN2C(=O)Nc2ccc(Cl)cc2)ccc1O` (configuration not stated), the inhibition zone (IZ) in test [1] came to 7 mm; in test [2] it was 9 mm. Moreover, the zone of inhibition at 1000 µg/mL was 10 mm in [3]; 18 mm in test [4]; 20 mm in test [6]; 6 mm in test [11]; 17 mm in [14]. Further, the zone of inhibition at 500 µg/mL is 4 mm in [5]; 17 mm in [7]; 7 mm in test [8]; 15 mm in [10]; 11 mm in test [12]. The figures for the IC50 in test [9] and in [13] were 121 uM/ml and 107 uM/ml, respectively.
For the compound `COc1ccc(NC(=O)N2N=C(c3cc4ccccc4o3)CC2c2ccc(O)c(OC)c2)cc1` (configuration not stated), the values for the inhibition zone (IZ) in test [1] and in test [2] were 2 mm and 4 mm, respectively. The zone of inhibition at 1000 µg/mL in test [3] amounted to 4 mm; in test [4], 7 mm; in test [6], 5 mm; in test [11] it was 2 mm; in test [14], 13 mm. For the same compound, the zone of inhibition at 500 µg/mL in test [5] is 1 mm; in [7], 3 mm; in test [8], 3 mm; in test [10], 5 mm; in [12] it was 1 mm. In addition, the IC50 in [9] was determined as 29 uM/ml; in [13] it was 25 uM/ml.
Consider `COc1cc(C2CC(c3cc4ccccc4o3)=NN2C(=O)Nc2ccc(O)c(O)c2)ccc1O` (configuration not stated), for which the inhibition zone (IZ) in test [1] is 1 mm; in [2], 2 mm. Moreover, the zone of inhibition at 1000 µg/mL in [3] turned out to be 3 mm; in [4], 5 mm; in test [6], 2 mm; in [11] it was 2 mm; in [14] it was 2 mm. Besides, the zone of inhibition at 500 µg/mL in test [5] was 1 mm; in [7], 1 mm; in test [8], 2 mm; in test [10] it was 3 mm; in test [12], 1 mm. Besides, the values for the IC50 in [9] and in [13] were 11 uM/ml and 9.5 uM/ml, respectively.
In the case of `OC(Cn1cncn1)(Cn1cncn1)c1ccc(F)cc1F` [FLUCONAZOLE], the inhibition zone (IZ) in [1] worked out at 15 mm; in [2], 17 mm. Also, the values for the zone of inhibition at 1000 µg/mL in [3] and in test [6] were 13 mm and 22 mm, respectively. Further, the zone of inhibition at 500 µg/mL in test [7] turned out to be 20 mm; in test [8], 10 mm.
